Measurements from patent US7731985B2, “4-aminopyrimidines and their use for the antimicrobial treatment of surfaces” (Ciba Specialty Chemicals Corporation, priority 2002, dated 2010).

Assays:
Assay in all cases: MIC in microtitre plates (Example 10)
Format in all cases: cell-based
Parameters in all cases: unit not given here
Settings in all cases: microtitre plate, 48 hours at 37° C., ≦20% growth
[1] = test system: Escherichia coli NCTC 8196 (=EC)
Description: (§1) Determination of the Minimum Inhibitory Concentration (MIC Value) in Microtitre Plates Casein/soymeal peptone broth for preparation of pre-cultures of test bacteria and yeast Bacteria: • Pseudomonas aeruginosa CIP A-22 (=PA) • Escherichia coli NCTC 8196 (=EC) • Staphylococcus aureus ATCC 9144 (=SA) • Candida albicans ATCC 10231 (=CA) The test substances are pre-dissolved in dimethyl sulfoxide (DMSO) and tested in a dilution series of 1:2. Bacteria and yeast are cultured overnight in CASO broth. All the test organism suspensions are adjusted to an organism count of 1-5×10^6 CFU/ml using […] sodium chloride solution. The test substances are pre-pipetted into microtitre plates in amounts of 8 μl per well. The pre-adjusted organism suspensions are diluted 1:100 in CASO broth and are added in amounts of 192 μl per well to the test substances. The test batches are incubated for 48 hours at 37° C. The incubation, the growth is determined on the basis of the turbidity of the test batches (optical density) at 620 nm in a microplate reader. The minimum inhibitory concentration (MIC value) is the concentration of substance at which (compared to the growth of the control) an appreciable inhibition of growth (≦20% growth) of the test organisms is observed. Three microtitre plates are used for each test organism and substance concentration. All the substances are tested in duplicate.

[2] = test system: Staphylococcus aureus ATCC 9144 (=SA)
Description: as §1

[3] = test system: Candida albicans ATCC 10231 (=CA)
Description: as §1

[4] = test system: Pseudomonas aeruginosa CIP A-22 (=PA)
Description: as §1

## Cc1cc(NC(C)CC(C)C)nc(-c2csc(C)n2)n1 (stereo not shown) [compound 147]
[1]
  MIC EC: >120
[2]
  MIC SA: 60
[3]
  MIC CA: 120
[4]
  MIC PA: >120

## CCCN(CCC)c1cc(C)nc(-c2cccnc2)n1 [compound 52]
[1]
  MIC EC: >120
[2]
  MIC SA: 30
[3]
  MIC CA: 120
[4]
  MIC PA: >120

## CCCCCCCCCCCCCCNc1cc(C)nc(C(C)C)n1 [compound 81]
[1]
  MIC EC: <3.75
[2]
  MIC SA: <3.75
[3]
  MIC CA: <3.75
[4]
  MIC PA: >120

## CCCCCCCCNc1cc(C)nc(-c2cccnc2)n1 [compound 34]
[1]
  MIC EC: 120
[2]
  MIC SA: 7.5
[3]
  MIC CA: 30
[4]
  MIC PA: >120

## CCCCCCCCNc1cc(C)nc(-c2cccs2)n1 [compound 59]
[1]
  MIC EC: 60
[2]
  MIC SA: 15
[3]
  MIC CA: 60
[4]
  MIC PA: >120

## CCCCCCNc1cc(C)nc(C2CC2)n1 [compound 116]
[1]
  MIC EC: 60
[2]
  MIC SA: 7.5
[3]
  MIC CA: 15
[4]
  MIC PA: >120

## Cc1ccc(-c2nc(-c3ccccc3)nc(NCCCCCCN)c2-c2ccccc2)cc1 [compound 11]
[1]
  MIC EC: 15
[2]
  MIC SA: 7.5
[3]
  MIC CA: 7.5
[4]
  MIC PA: >120

## CCCCCCCCNc1cc(C)nc(-c2cccc(F)c2)n1 [compound 61]
[1]
  MIC EC: 120
[2]
  MIC SA: 30
[3]
  MIC CA: 120
[4]
  MIC PA: >120

## CCCCCCCCCCCCCCCCNc1cc(C)nc(-c2cccnc2)n1 [compound 39]
[1]
  MIC EC: 30
[2]
  MIC SA: <3.75
[3]
  MIC CA: 15
[4]
  MIC PA: >120

## Cc1cc(NCc2ccco2)nc(-c2cccnc2)n1 [compound 51]
[1]
  MIC EC: >120
[2]
  MIC SA: 30
[3]
  MIC CA: >120
[4]
  MIC PA: >120

## NCCCCCCCCNc1nc(-c2ccccc2)nc(-c2cccc(C(F)(F)F)c2)c1-c1ccccc1 [compound 20]
[1]
  MIC EC: 30
[2]
  MIC SA: 15
[3]
  MIC CA: 15
[4]
  MIC PA: >120

## CCCCCCCCCCCCCCNc1cc(C)nc(-c2cccnc2)n1 [compound 38]
[1]
  MIC EC: 7.5
[2]
  MIC SA: <3.75
[3]
  MIC CA: <3.75
[4]
  MIC PA: >120

## NCCOCCOCCNc1nc(-c2ccccc2)nc(-c2cccc(C(F)(F)F)c2)c1-c1ccccc1 [compound 22]
[1]
  MIC EC: 15
[2]
  MIC SA: 15
[3]
  MIC CA: 7.5
[4]
  MIC PA: >120

## NCCNCCNc1nc(-c2ccccc2)nc(-c2cccc(C(F)(F)F)c2)c1-c1ccccc1 [compound 18]
[1]
  MIC EC: 30
[2]
  MIC SA: 30
[3]
  MIC CA: 60
[4]
  MIC PA: 120

## CCCCN(C)c1cc(C)nc(C)n1 [compound 126]
[1]
  MIC EC: >120
[2]
  MIC SA: 120
[3]
  MIC CA: 120
[4]
  MIC PA: >120

## CCCCCCCCNc1cc(C)nc(-c2cccc(OC)c2)n1 [compound 62]
[1]
  MIC EC: 120
[2]
  MIC SA: 60
[3]
  MIC CA: 120
[4]
  MIC PA: >120

## Cc1ccc(-c2nc(-c3ccccc3)nc(NCCCN(C)CCCN)c2-c2ccccc2)cc1 [compound 12]
[1]
  MIC EC: 3.75
[2]
  MIC SA: 7.5
[3]
  MIC CA: 7.5
[4]
  MIC PA: 7.5

## CCCCCCCCNc1cc(C)nc(-c2ccccc2)n1 [compound 64]
[1]
  MIC EC: 30
[2]
  MIC SA: 7.5
[3]
  MIC CA: 15
[4]
  MIC PA: >120

## CCCCCCCCCCNc1cc(C)nc(-c2cccs2)n1 [compound 98]
[1]
  MIC EC: 15
[2]
  MIC SA: 15
[3]
  MIC CA: 15
[4]
  MIC PA: >120

## CCCCC(CC)CNc1cc(C)nc(-c2ccc(C)cc2)n1 (stereo not shown) [compound 136]
[1]
  MIC EC: >120
[2]
  MIC SA: 7.5
[3]
  MIC CA: 60
[4]
  MIC PA: >120

## CCCCCCCCCCCCCCNc1cc(C)nc(-c2ccc(C)c(F)c2)n1 [compound 83]
[1]
  MIC EC: 7.5
[2]
  MIC SA: <3.75
[3]
  MIC CA: <3.75
[4]
  MIC PA: >120

## CCCCCCCCNc1cc(C)nc(C2CC2)n1 [compound 67]
[1]
  MIC EC: 30
[2]
  MIC SA: 7.5
[3]
  MIC CA: 7.5
[4]
  MIC PA: >120

## COc1ccccc1-c1nc(-c2ccccc2)nc(N2CCC(CCCC3CCNCC3)CC2)c1-c1ccccc1 [compound 28]
[1]
  MIC EC: >120
[2]
  MIC SA: <3.75
[3]
  MIC CA: >120
[4]
  MIC PA: >120

## NCCCOCCCCOCCCNc1nc(-c2ccccc2)nc(-c2cccc3ccccc23)c1-c1ccccc1 [compound 6]
[1]
  MIC EC: 60
[2]
  MIC SA: 7.5
[3]
  MIC CA: >120
[4]
  MIC PA: >120

## CCCCCCCCCCNc1cc(C)nc(-c2cccc(N)c2)n1 [compound 102]
[1]
  MIC EC: 30
[2]
  MIC SA: 7.5
[3]
  MIC CA: 15
[4]
  MIC PA: >120

## CCCCCCCCNc1cc(C)nc(C)n1 [compound 65]
[1]
  MIC EC: 60
[2]
  MIC SA: 30
[3]
  MIC CA: 15
[4]
  MIC PA: >120

## CNCCN(C)c1nc(-c2ccccc2)nc(-c2ccccc2OC)c1-c1ccccc1 [compound 26]
[1]
  MIC EC: 60
[2]
  MIC SA: 60
[3]
  MIC CA: >120
[4]
  MIC PA: >120

## NCCCN1CCN(CCCNc2nc(-c3ccccc3)nc(-c3cccc(C(F)(F)F)c3)c2-c2ccccc2)CC1 [compound 23]
[1]
  MIC EC: 7.5
[2]
  MIC SA: 15
[3]
  MIC CA: 7.5
[4]
  MIC PA: 30

## CCCCN(C)c1cc(C)nc(C(C)C)n1 [compound 128]
[1]
  MIC EC: >120
[2]
  MIC SA: 120
[3]
  MIC CA: 120
[4]
  MIC PA: >120

## CCCCCCCCCCCCCCNc1cc(C)nc(-c2ccccc2)n1 [compound 76]
[1]
  MIC EC: 60
[2]
  MIC SA: 15
[3]
  MIC CA: 30
[4]
  MIC PA: >120

## CCCCCCCCCCNc1cc(C)nc(-c2ccc(C)c(F)c2)n1 [compound 107]
[1]
  MIC EC: 15
[2]
  MIC SA: 7.5
[3]
  MIC CA: 15
[4]
  MIC PA: >120

## Fc1ccc(-c2nc(-c3ccccc3)nc(N3CCCNCC3)c2-c2ccccc2)cc1 [compound 7]
[1]
  MIC EC: 15
[2]
  MIC SA: 15
[3]
  MIC CA: 30
[4]
  MIC PA: >120

## CCCCCCCCCCCCCCNc1cc(C)nc(C)n1 [compound 78]
[1]
  MIC EC: 7.5
[2]
  MIC SA: <3.75
[3]
  MIC CA: <3.75
[4]
  MIC PA: >120

## CCCCCCNc1cc(C)nc(-c2cccnc2)n1 [compound 33]
[1]
  MIC EC: >120
[2]
  MIC SA: 30
[3]
  MIC CA: 60
[4]
  MIC PA: >120

## CCCCCCCCCCNc1cc(C)nc(-c2ccccc2)n1 [compound 99]
[1]
  MIC EC: 15
[2]
  MIC SA: 15
[3]
  MIC CA: 30
[4]
  MIC PA: >120

## CCCCCCCCNc1cc(C)nc(-c2cccc(C)c2)n1 [compound 60]
[1]
  MIC EC: >120
[2]
  MIC SA: 120
[3]
  MIC CA: 120
[4]
  MIC PA: >120

## CCCCN(C)c1cc(C)nc(-c2cccs2)n1 [compound 124]
[1]
  MIC EC: 120
[2]
  MIC SA: 60
[3]
  MIC CA: 60
[4]
  MIC PA: >120
